Assays:
Format in all cases: in vivo, rat
[1] = test system: Atrial natriuretic factor (ANP); assay: Assay C: ANP mRNA in left ventricle (TaqMan)
Experimental: The procedure of Assay B was expanded upon in a further study. […] Myocardial tissue from animals in each treatment group was examined after 7, 14, or 30 days of treatment.
(§1) Potassium chloride supplementation was added to the saline solution in order to prevent the potential hypokalemia associated with aldosterone excess.
At the time of the surgery, an Alzet 2002 osmotic minipump (Alza Corp., Palo Alto, Calif.) containing either vehicle (9% ethanol/87% propylene glycol/4% dH2O) or 1.0 mg/mL d-aldosterone (Sigma Chemical, St. Louis, Mo.) was inserted subcutaneously at the nape of the neck. Aldosterone was administered at a dose of 0.75 g/hour. […] Animals were sacrificed from each group (n=8-13) after 7, 14, or 30 days of treatment. […]
The fluorogenic 5′-nuclease assay (TaqMan PCR) using Applied Biosystems' 7700 Sequence Detection System (Applied Biosystems, Foster City, Calif.) allowed for real time detection/quantitation of a specific gene by monitoring the increase in fluorescence of a gene-specific, dye-labeled oligonucleotide probe. […] When the probe was annealed to the target gene, fluorescence of 6FAM was prevented by the close proximity of TAMRA. The exonuclease activity of Taq polymerase released the dyes from the oligonucleotide probe by displacing the probe from the target sequence resulting in fluorescence excitation in direct proportion to the amount of target message present. […]

[2] = test system: osteopontin, ED-1, CD-3, ICAM-1, VCAM-1; assay: Assay C: immunohistochemistry of myocardial tissue (osteopontin, ED-1, CD-3, ICAM-1, VCAM-1); conditions: aldosterone+salt treated rats; eplerenone 100 mg/kg/day
Experimental: The procedure of Assay B was expanded upon in a further study. […] Myocardial tissue from animals in each treatment group was examined after 7, 14, or 30 days of treatment. […] Lesions were preceded by the expression and progressive upregulation of proinflammatory molecules.
as §1
At the time of the surgery, an Alzet 2002 osmotic minipump (Alza Corp., Palo Alto, Calif.) containing either vehicle (9% ethanol/87% propylene glycol/4% dH2O) or 1.0 mg/mL d-aldosterone (Sigma Chemical, St. Louis, Mo.) was inserted subcutaneously at the nape of the neck. Aldosterone was administered at a dose of 0.75 g/hour. […] Animals were sacrificed from each group (n=8-13) after 7, 14, or 30 days of treatment.
Five m sections were deparaffinized in xylene (two, 5-10 min incubations) and rehydrated by 3 min incubations in ethanol as follows: two incubations in 100% ethanol followed by two incubations in 95% alcohol and one incubation in 70% alcohol. Once hydrated, sections were rinsed in tap water for 1 min and distilled water for 1 min. Endogenous peroxide activity was blocked by placing slides in 3.0% H2O2 for 15 min followed by a 5 min rinse in distilled water. Slides were processed for antigen retrieval using citric acid, pH 6.0. […]

[3] = test system: angiotensin II infused, captopril treated stroke prone spontaneously hypertensive rats; assay: Angiotensin II infused, captopril treated stroke prone spontaneously hypertensive rats: urinary protein excretion and renal injury (FIGS. 35-36)

Q: What does the source list for `COC(=O)[C@@H]1CC2=CC(=O)CC[C@]2(C)[C@@]23O[C@@H]2C[C@@]2(C)[C@@H](CC[C@@]24CCC(=O)O4)[C@H]13` [eplerenone, Pregn-4-ene-7,21-dicarboxylic acid, 9,11-epoxy-17-hydroxy-3-oxo-, γ-lactone, methyl ester, (7α, 11α, 17β) -]?
A: ANP mRNA upregulation ([1]; after 30 days of treatment): significantly reduced; ANP mRNA ([1]; mean ± SEM after 30 days of treatment, relative to cyclophilin expression, eplerenone 100 mg/kg/day): 9.20 ± 2.44 AU; Staining in myocardial tissue for marker proteins (immunohistochemistry) [2]: markedly blunted the aldosterone+salt treatment induced staining; Urinary protein excretion ([3]; captopril treated SHRSP (FIG. 35)): inhibition of increased urinary protein excretion; Histopathological scores for renal injury ([3]; captopril treated SHRSP (FIG. 36)): reduction in histopathological scores for renal injury
